Laboratory results: patent US9198425B2, “Herbicidally-effective sulfinyl aminobenzamides” (BAYER INTELLECTUAL PROPERTY GMBH, priority 2012, dated 2015)

What was measured:
Assay in all cases: Pre-emergence herbicidal action
Format in all cases: in vivo
Abutilon theophrasti = details: dosage 320 g/ha
Text: (§1) Seeds of monocotyledonous and dicotyledonous weed plants and crop plants are placed in wood-fiber pots in sandy loam and covered with soil. The inventive compounds formulated in the form of wettable powders (WP) or as emulsion concentrates (EC) are then applied to the surface of the covering soil as an aqueous suspension or emulsion at a water application rate of 600 to 800 l/ha (converted) with addition of 0.2% wetting agent. After the treatment, the pots are placed in a greenhouse and kept under good growth conditions for the test plants. The damage to the test plants is assessed visually after a test period of 3 weeks by comparison with untreated controls (herbicidal activity in percent (%): 100% action=the plants have died, 0% action=like control plants). For example, compounds No. 6-102, 6-014 and 6-058 at an application rate of 320 g/ha each show at least 80% efficacy against Abutilon theophrasti, Amaranthus retroflexus and Matricaria inodora.
(§2) In accordance with the conditions specified for pre-emergence testing of herbicidal efficacy against harmful plants, comparative tests were conducted between inventive compounds and compounds known from WO 2011035874 A1.

Veronica persica = details: Table A, dosage 320 g/ha
Text: as §1, §2

Matricaria inodora = details: dosage 320 g/ha
Text: as §1, §2

Amaranthus retroflexus = details: dosage 320 g/ha
Text: as §1, §2

Pharbitis purpureum = details: dosage 320 g/ha
Text: as §1, §2

Stellaria media = details: dosage 320 g/ha
Text: as §1, §2

Avena fatua = details: Table C, dosage 320 g/ha
Text: as §1, §2

SMILES	Herbicidal efficacy against ABUTH (Abutilon theophrasti; Table A)	Herbicidal efficacy against VERPE (Veronica persica)	Herbicidal efficacy against MATIN (Matricaria inodora; Table A)	Herbicidal efficacy against AMARE (Amaranthus retroflexus; Table A)	Herbicidal efficacy against PHBPU (Pharbitis purpureum; Table A)	Herbicidal efficacy against ABUTH (Abutilon theophrasti; Table B)	Herbicidal efficacy against STEME (Stellaria media; Table B)	Herbicidal efficacy against MATIN (Matricaria inodora; Table B)	Herbicidal efficacy against AMARE (Amaranthus retroflexus; Table B)	Herbicidal efficacy against STEME (Stellaria media; Table C)	Herbicidal efficacy against MATIN (Matricaria inodora; Table C)	Herbicidal efficacy against AVEFA (Avena fatua)	Herbicidal efficacy against PHBPU (Pharbitis purpureum; Table C)
CCS(=O)(CC)=Nc1c(Cl)ccc(C(=O)Nc2nonc2C)c1Cl	80%	90%	90%	90%	80%	–	–	–	–	–	–	–	–
Cc1nonc1NC(=O)c1ccc(Cl)c(N=S2(=O)CCCCC2)c1Cl	–	–	–	–	–	90%	70%	90%	60%	–	–	–	–
Cc1nonc1NC(=O)c1ccc(Cl)c(N=S2(=O)CCOCC2)c1Cl	–	–	–	–	–	–	–	–	–	90%	100%	70%	100%
Cc1nonc1NC(=O)c1ccc(Cl)c(N(C)C)c1Cl [drawing 39]	0%	40%	0%	30%	10%	–	–	–	–	–	–	–	–
Cc1nonc1NC(=O)c1ccc(Cl)c(N(C)C)c1Cl [drawing 41]	–	–	–	–	–	0%	0%	0%	30%	–	–	–	–
Cc1nonc1NC(=O)c1ccc(Cl)c(N(C)C)c1Cl [drawing 43]	–	–	–	–	–	–	–	–	–	0%	0%	0%	10%
